How the values were obtained:
insulin and XlHbox8 = experiment: RT-PCR expression of pancreas-specific genes in explants; type: cell-based, Xenopus laevis; conditions: treated with one agent alone, cultured three days
From the text: C., and the expression of insulin that is a pancreas-specific gene (Henry, G. L. et al.; Development 122, 1007-1015, 1996) and XlHbox8 (Lemaire, P. et al.; Development 125, 2371-2380, 1998) were examined by the method as previously described (Yokota, C. et al.; J. Biochem. 123, 339-346, 1998). […] EF-1α (elongation factor 1α) was used as a loading control. The combination of primers of each gene in PCR reaction that were used is as follows: insulin [insulin-[…] No. 1), insulin-[…] No. 2)], […] No. 3), […] No. 4)], […] No. 5), and […] No. 6)]. Seventy-six μl of DDW, 10 μl of 10×Ex buffer, 8 μl of 2.5 mM dNTPs mix, 0.5 μl of 5[…] 0.5 μl of 100 μM of each of the above-mentioned primers were added to 5 μl of the above-mentioned cDNA (20 ng/μl), and PCR reaction was conducted with the total amount of 100 μl. The thermal cycle program, which is a cycle to denature for four minutes at 94° C. only at the first time, followed by thermal denaturation for 30 seconds at 94° C., […], was repeated for 23 to 30 times. Ultimately, annealing was conducted for nine minutes at 72° C. […] As a negative control, EF-1α wherein RT-PCR was conducted under a condition where the reverse transcription factor had been eliminated was used.

whole embryos = experiment: Retinoic acid treatment of whole embryos from blastula to gastrula; type: in vivo, Xenopus
From the text: Moreover, there has been a report regarding the effect of retinoic acid to the endoderm of Xenopus embryo (Zeynali, B. and Dixon, K. E.; Dev. Genes. Evol. 208, 318-326, 1998). […] The present inventors conducted retinoic acid treatment to the whole embryos from the period of blastula to gastrula. […] However, the physical relationship of each of the endodermal organs was abnormal and the endodermal organs were formed aggregately in the anterior and posterior axis direction.

[1] = tested on: Xenopus embryos at developmental stage 22 to 32; conditions: cited from earlier work
[2] = tested on: blastopore upper lip cell of Xenopus early gastrula; conditions: cited from earlier work
[3] = tested on: pieces of presumptive ectoderm of Xenopus late blastula; experiment: Simultaneous one-hour treatment of pieces of presumptive ectoderm with activin/retinoic acid, tissues that differentiate (light microscopy); type: cell-based, Xenopus laevis
Procedure: (§1) The dorsal lymph sacs of adult male and female Xenopus laevis were each injected with 600 IU of hCG (human chorionic gonadotropin; Gestron; Denka Seiyaku, Japan), and fertilized eggs were obtained by mating these Xenopuses. These late blastulas [developmental stage 9] were dejellied in Steinberg's solution (SS: 58.00 mM NaCl, 0.67 mM KCl, 0.34 mM Ca(NO3)2, 0.83 mM MgSO4, 3.00 mM HEPES and 100 mg/l kanamycin sulfate; pH 7.4) containing 4.5% cysteine hydrochloride (pH 7.8), and the vitelline membranes were removed in the Steinberg's solution by using a pair of watchmaker's tweezers. The presumptive ectoderm portion of Xenopus late blastula thus obtained was cut into a size of 0.4 mm×0.4 mm by using a tungsten needle.
(§2) Human recombinant activin A (Ajinomoto Co., Inc.) was dissolved in Steinberg's solution containing 0.1% bovine serum albumin (BSA) to a concentration of 100 ng/ml, and an activin solution was prepared.
C. (see temporary treatment in FIG. 1). These explants that had been cultured were fixed with Bouin's solution, followed by dehydration treatment of a series of ethanol and xylene, and these explants were embedded in paraffin and sliced into 6 μm sections. These sections were stained with hematoxylin and eosin, and the tissues that differentiated were observed and examined under a light microscope. Further, the untreated pieces of presumptive ectoderm were also observed and examined in the same manner by using a light microscope.

[4] = tested on: pieces of presumptive ectoderm of Xenopus late blastula; experiment: Simultaneous and continuous treatment of pieces of presumptive ectoderm with activin/retinoic acid, tissues that differentiate; type: cell-based, Xenopus laevis; conditions: continuous, activin 100 ng/ml, retinoic acid 0 M, 10 samples
Procedure: as §1, §2
Based on the results from Example 2, since the effect of retinoic acid treatment was found in the differential pattern of mesodermal tissues, it can be considered that retinoic acid acted in the period when the fate of the mesoderm is determined to each mesodermal tissue (notochord, muscle, pronephric tubule and the like, for example). […] C. for 10 days (see continuous treatment in FIG. 1). These explants that had been cultured were stained in the same manner as in Example 2, and the tissues that differentiated were observed and examined by using a light microscope.

[5] = tested on: pieces of presumptive ectoderm of Xenopus late blastula; experiment: Time lag treatment of pieces of presumptive ectoderm with activin then retinoic acid, tissues that differentiate; type: cell-based, Xenopus laevis; conditions: activin 100 ng/ml alone 1 h, 65 samples
Procedure: as §1
A time lag was provided between the treatment with activin and treatment with retinoic acid, so that the action of retinoic acid can be received for the first time, after the differentiation to dorsal mesoderm/anterior endoderm had been determined by action of activin. […] After the elapse of the time lag, the pieces of presumptive ectoderm were left at rest in retinoic acid solution at 10^−4 M for one hour, washed two times with Steinberg's solution containing 0.1% BSA, and then cultured in Steinberg's solution containing 0.1% BSA at 20° C. for ten days (see time lag treatment in FIG. 1). These explants that had been cultured were stained in the same manner as described in Example 2, and the tissues that differentiated were observed and examined under a light microscope.

Xenopus animal cap cells = conditions: cited from earlier work
[6] = activin 100 ng/ml, retinoic acid 0 M, 1 h, 31 samples

Compound: CC1=C(/C=C/C(C)=C/C=C/C(C)=C/C(=O)O)C(C)(C)CCC1 [retinoic acid, All-trans retinoic acid]
- expression of insulin and XlHbox8 (insulin and XlHbox8): expression of these genes was not found
- morphology of treated embryos (whole embryos): head-deficient embryos
- induction of pancreas in vivo (whole embryos; whole embryos treated from blastula to gastrula): pancreas was not induced specifically in vivo
- expression of XlHbox8 [1]: no effect is found in the expression of XlHbox8
- formation of pancreas [1]: formed normally
- morphology of the digestive organs [1]: the morphology of the digestive organs such as intestines, liver and stomach become abnormal
- pancreas formation [2]: enables pancreas formation with high efficiency

Compound: activin: Human recombinant activin A (Ajinomoto Co., Inc.)
- Atypical epidermis differentiated in explants [3, 6]: 0(0) number (percentage)
- Cartilage differentiated in explants [3, 6]: 5(16) number (percentage)
- Coelomic epithelium differentiated in explants [3, 6]: 15(48) number (percentage)
- Epidermis differentiated in explants [3, 6]: 30(97) number (percentage)
- Intestinal epithelium differentiated in explants [3, 6]: 0(0) number (percentage)
- Mesenchyme differentiated in explants [3, 6]: 31(100) number (percentage)
- Muscle differentiated in explants [3, 6]: 25(81) number (percentage)
- Neural tissue differentiated in explants [3, 6]: 12(39) number (percentage)
- Notochord differentiated in explants [3, 6]: 4(13) number (percentage)
- Pancreas differentiated in explants [3, 6]: 0(0) number (percentage)
- Pharyngeal epithelium differentiated in explants [3, 6]: 12(39) number (percentage)
- Pronephric tubule differentiated in explants [3, 6]: 7(23) number (percentage)
- Yolk-rich cell differentiated in explants [3, 6]: 18(58) number (percentage)
- tissues that differentiated ([3]; treated only with activin (100 ng/ml)): dorsal mesodermal and anterior endodermal tissues such as notochord, muscle, pharyngeal epithelium and the like differentiated
- Atypical epidermis differentiated in explants [4]: 0(0) number (percentage)
- Cartilage differentiated in explants [4]: 1(10) number (percentage)
- Coelomic epithelium differentiated in explants [4]: 4(40) number (percentage)
- Epidermis differentiated in explants [4]: 9(90) number (percentage)
- Intestinal epithelium differentiated in explants [4]: 0(0) number (percentage)
- Mesenchyme differentiated in explants [4]: 9(90) number (percentage)
- Muscle differentiated in explants [4]: 10(100) number (percentage)
- Neural tissue differentiated in explants [4]: 10(100) number (percentage)
- Notochord differentiated in explants [4]: 3(30) number (percentage)
- Pancreas differentiated in explants [4]: 0(0) number (percentage)
- Pharyngeal epithelium differentiated in explants [4]: 5(50) number (percentage)
- Pronephric tubule differentiated in explants [4]: 0(0) number (percentage)
- Yolk-rich cell differentiated in explants [4]: 5(50) number (percentage)
- Atypical epidermis differentiated in explants [5]: 0(0) number (percentage)
- Cartilage differentiated in explants [5]: 12(18) number (percentage)
- Coelomic epithelium differentiated in explants [5]: 28(43) number (percentage)
- Epidermis differentiated in explants [5]: 59(91) number (percentage)
- Intestinal epithelium differentiated in explants [5]: 3(5) number (percentage)
- Mesenchyme differentiated in explants [5]: 59(91) number (percentage)
- Muscle differentiated in explants [5]: 37(57) number (percentage)
- Neural tissue differentiated in explants [5]: 32(49) number (percentage)
- Notochord differentiated in explants [5]: 34(52) number (percentage)
- Pancreas differentiated in explants [5]: 0(0) number (percentage)
- Pharyngeal epithelium differentiated in explants [5]: 37(57) number (percentage)
- Pronephric tubule differentiated in explants [5]: 5(8) number (percentage)
- Yolk-rich cell differentiated in explants [5]: 29(45) number (percentage)
- expression of insulin and XlHbox8 (insulin and XlHbox8): induced only a little
- induction of mesodermal tissues (Xenopus animal cap cells): induces most mesodermal tissues such as notochord, muscle, mesenchyme and coelomic epithelium, dose-dependently

— patent US20030109035A1, “Method of forming vertebrate pancreas in vitro” (priority 2000, published 2003)
